In paper PMC9385959, “Mammalian derived lipocalin and secretoglobin respiratory allergens strongly bind ligands with potentially immune modulating properties” (Frontiers in Allergy, 2022):
Where “and” joins values, the source holds several entries; their conditions need not be identical. Equal entries are not always repeated.

Columns and labels:
[1] = Thermal stability by circular dichroism spectroscopy with temperature ramping; type: physicochemical; settings: temperature ramping 20–95°C, 10 μmol/L protein
Protocol: Secondary protein structure formation and thermal stability of the recombinant proteins were determined by circular dichroism (CD) spectroscopy. Recombinant proteins were diluted with ultrapure water to a concentration of 10 μmol/L in a volume of 300 μL to measure their CD spectra using the Chirascan CD spectrometer (Applied Photophysics). Far-ultraviolet CD spectra were recorded at 180–260 nm (0.8 nm bandwidth, 0.4 s interval, 3 repeats) in a cuvette of 0.1 cm path length. Thermal sensitivity was assessed by ramping temperatures (20–95°C) with an internal temperature probe and continuous CD-signal measurements (ramping rate 0.82°C per minute, no repeats). After 10 min at 95°C another CD spectrum was recorded with 3 repeats, then the temperature was decreased back to 20°C for a final scan with 3 repeats to analyze the refolding capacity. The read-out was converted with respective protein details, such as molecular weight and number of amino acids, into degrees^*cm2^*dmol−1. Chirascan Global 3 Analysis Software (Applied Photophysics) and DichroWeb online server ([36]) with solutions from the CDSSTR method and reference data set 7 ([37]) were used to analyze and interpret CD spectra, measured as a function of temperature.

[2] = target: T1, Fel d 4 (Felis catus, UniProt Q5VFH6); assay: Fluorochrome binding to Fel d 4 (emission spectra and titration); set-up: species or system cat; settings: 5 μM Fel d 4 with 5 μM fluorochrome
T1 construct: polyhistidine tag (C); made in house; host or cells: E. coli Rosetta-gami 2
T1 sequence (Q5VFH6 16-186): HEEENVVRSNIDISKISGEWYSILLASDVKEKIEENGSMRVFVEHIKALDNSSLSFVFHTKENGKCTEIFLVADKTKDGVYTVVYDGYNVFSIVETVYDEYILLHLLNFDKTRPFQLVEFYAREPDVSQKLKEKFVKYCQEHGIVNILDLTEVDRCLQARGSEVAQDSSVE
Protocol: (§1) Stock solutions were prepared at a concentration of 10 mM in 100% ethanol for the fluorochromes 1-aminoanthracene (1-AMA), 8-anilino-1-naphthalensulfonic acid (1,8-ANS) and for all ligands, and in 100% methanol for n-phenyl-1-naphthylamine (1-NPN), respectively. Iron catecholate ligands (siderophores) were prepared as previously described ([46]). Fluorochrome-protein complexes were analyzed at an equimolar concentration of 5 μM in PBS with 5% ethanol in a volume of 100 μL per well in black 96-well non-binding microplates (Greiner Bio-One GmbH, Frickenhausen, Germany). Solutions containing only protein or the respective fluorescent probe in PBS with 5% ethanol served as controls. Fluorochrome-protein complexes were incubated with orbital shaking for 10 min at 500 rpm at room temperature (RT) before measurement using the fluorescence reader TECAN Infinite 200 Pro (Tecan Trading AG, Switzerland). Excitation wavelengths were fixed at 380 nm for 1-AMA and 1,8-ANS, and 337 nm for 1-NPN. Fluorescence emission spectra were recorded in 5 nm steps between 420 and 560 nm for 1-AMA and 1,8-ANS and between 380 and 500 nm for 1-NPN. The establishment of fluorescent quenching assay parameters for each allergen is explained in the results Section Fluorescence-quenching assay set up. Binding affinities were analyzed by non-linear regression in GraphPad Prism Version 9.3.1 (GraphPad Software, LLC). For the ligand competition assays, ligands were added to fluorochrome-allergen complexes with a final buffer composition of 5% ethanol in PBS in a volume of 100 μL and incubated for 30 min at 500 rpm at RT and further equilibrated for another 30 min without shaking before fluorescence measurement.
(§2) We established four specific parameters for each allergen to set up a fluorescence quenching assay for screening a large array of potential ligands: (i) a compatible fluorochrome, (ii) the optimal emission wavelength to analyze the fluorescence intensities of the fluorochrome-allergen complex, (iii) the binding affinities of the fluorochrome-allergen complex (Kd values) and (iv) optimal fluorochrome concentrations (EC50 values).
(§3) For each allergen, we identified a suitable fluorescence probe by adding equimolar concentrations of either 1-AMA or 1,8-ANS to the recombinant proteins. […] 1-AMA was chosen for the guinea pig lipocalin Cav p 1 isoallergens, rabbit lipocalin Ory c 2, and rabbit secretoglobin Ory c 3. Fluorescence intensities increased 20–60-fold upon binding. While the emission maxima shifted from 565 to 485 nm for lipocalin fluorochrome-allergen pairs, the blue shift was less pronounced for the Ory c 3 secretoglobin-1-AMA complex to 505 nm (Figure 4B). […] Respective Kd were calculated after background subtraction (Figure 4B). As ethanol gave a high background with 1-NPN, these experiments were carried out with methanol to […] the signal-to-noise-ratio.
(§4) We evaluated the binding affinities of the fluorochromes to the allergens by dose-dependent titration curves. Increasing fluorochrome concentrations were added to a fixed protein concentration of 5 μM until saturation (Figure 5). Fluorescence intensities were recorded at specific emission maxima for each fluorochrome-allergen complex, determined using the emission spectra shown in Figure 4. We analyzed the specific binding of fluorochrome-allergen complexes by non-linear regression and calculated equilibrium dissociation constants (Kd) and EC50 values (Table 2). EC50 values are equal to fluorochome concentrations in which half of the allergen binding sites are saturated and these concentrations were used in subsequent ligand competition assays. We chose a one-site specific binding model for all allergens, except for human LCN1, where multiple binding site analysis emerged as the model of best fit and two Kd values were calculated. Evidence for internal and external binding sites for 1,8-ANS and LCN1 were already reported ([58]).

[3] = target: Cav p 1.0101 (Cavia porcellus, UniProt A0A484HM70, S19A); assay: Fluorochrome binding to Cav p 1.0101 (emission spectra and titration); set-up: species or system guinea pig; settings: 5 μM Cav p 1.0101
Protocol: as §1, with “For the ligand competition assays, ligands were added to fluorochrome-allergen complexes with a final buffer composition of 5% ethanol in PBS in a volume of 100 μL and incubated for 30 min at 500 rpm at RT and further equilibrated for another 30 min without shaking before fluorescence measurement.” left out

[4] = target: T2, Fel d 1 (Felis catus, UniProt P30438+P30440); assay: Fluorochrome binding to Fel d 1 (emission spectra and titration); set-up: species or system cat; settings: 5 μM Fel d 1 with 5 μM fluorochrome
T2 construct: polyhistidine tag (C); made in house; host or cells: E. coli Rosetta-gami 2
T2 sequence (P30438+P30440 with tags, fused parts or gaps): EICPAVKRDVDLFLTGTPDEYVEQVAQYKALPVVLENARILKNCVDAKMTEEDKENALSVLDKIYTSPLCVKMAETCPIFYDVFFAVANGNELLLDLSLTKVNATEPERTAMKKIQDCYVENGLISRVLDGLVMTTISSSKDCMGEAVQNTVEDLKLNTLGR
Protocol: as §1, §2, §3, §4

[5] = target: Cav p 1.0201 (Cavia porcellus, UniProt A0A484HRI4); assay: Fluorochrome binding to Cav p 1.0201 (emission spectra and titration); set-up: species or system guinea pig; settings: 5 μM Cav p 1.0201
Protocol: as §1, with “For the ligand competition assays, ligands were added to fluorochrome-allergen complexes with a final buffer composition of 5% ethanol in PBS in a volume of 100 μL and incubated for 30 min at 500 rpm at RT and further equilibrated for another 30 min without shaking before fluorescence measurement.” left out

[6] = target: Ory c 3 (Oryctolagus cuniculus, UniProt Q9GK63+Q9GK67); assay: Fluorochrome binding to Ory c 3 (emission spectra and titration); set-up: species or system rabbit; settings: 5 μM Ory c 3
Protocol: as §1, with “For the ligand competition assays, ligands were added to fluorochrome-allergen complexes with a final buffer composition of 5% ethanol in PBS in a volume of 100 μL and incubated for 30 min at 500 rpm at RT and further equilibrated for another 30 min without shaking before fluorescence measurement.” left out

[7] = target: T3, Can f 6 (Canis lupus familiaris, UniProt H2B3G5); assay: Fluorochrome binding to Can f 6 (emission spectra and titration); set-up: species or system dog; settings: 5 μM Can f 6 with 5 μM fluorochrome
T3 construct: polyhistidine tag (C); made in house; host or cells: E. coli Rosetta-gami 2
T3 sequence (H2B3G5 16-190): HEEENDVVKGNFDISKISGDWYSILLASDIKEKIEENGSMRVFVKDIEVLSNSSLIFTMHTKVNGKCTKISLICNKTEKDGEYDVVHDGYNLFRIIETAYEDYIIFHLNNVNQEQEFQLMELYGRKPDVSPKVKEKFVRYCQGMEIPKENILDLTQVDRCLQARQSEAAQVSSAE
Protocol: as §1, §2, §3, §4

[8] = target: Ory c 2; assay: Fluorochrome binding to Ory c 2 (emission spectra and titration); set-up: species or system rabbit
Protocol: as §1, with “measurement. […]” for “measurement.”
For each allergen, we identified a suitable fluorescence probe by adding equimolar concentrations of either 1-AMA or 1,8-ANS to the recombinant proteins. […] Fluorescence intensities increased 20–60-fold upon binding. […] Respective Kd were calculated after background subtraction (Figure 4B). […]
We evaluated the binding affinities of the fluorochromes to the allergens by dose-dependent titration curves. […]

[9] = one-site specific binding, read-out: Fluorochrome dissociation constant Kd
[10] = read-out: EC50 fluorochrome concentration

Sequence of Cav p 1.0101 (A0A484HM70 entry or part of it S19A): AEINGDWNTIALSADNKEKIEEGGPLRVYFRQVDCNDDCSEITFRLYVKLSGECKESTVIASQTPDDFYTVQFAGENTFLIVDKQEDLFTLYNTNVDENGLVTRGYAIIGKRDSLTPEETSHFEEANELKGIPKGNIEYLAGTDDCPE
Sequence of Ory c 3 (Q9GK67 entry or part of it): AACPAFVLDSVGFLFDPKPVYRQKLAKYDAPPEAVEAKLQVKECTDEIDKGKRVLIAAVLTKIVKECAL
Sequence of Ory c 3 (Q9GK63 entry or part of it): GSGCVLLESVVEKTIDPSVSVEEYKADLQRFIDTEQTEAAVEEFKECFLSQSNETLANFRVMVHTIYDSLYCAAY
Sequence of Cav p 1.0201 (A0A484HRI4 entry or part of it): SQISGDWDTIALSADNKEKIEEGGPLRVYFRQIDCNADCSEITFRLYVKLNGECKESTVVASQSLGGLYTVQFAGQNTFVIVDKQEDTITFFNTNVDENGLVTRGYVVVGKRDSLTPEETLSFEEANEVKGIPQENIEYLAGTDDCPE

Row | Compound | Melting point [1] [C°] | Increase of fluorescence intensity upon binding [2] | Kd [3, 9] | EC50 [3, 10] | Increase of fluorescence intensity upon binding [4] | Kd [5, 9] [µM] | EC50 [5, 10] [µM] | Kd [6, 9] [µM] | EC50 [6, 10] [µM] | Increase of fluorescence intensity upon binding [7] | Kd ([8]; 5 μM Ory c 2, one-site specific binding, read-out: Fluorochrome dissociation constant Kd) [µM] | EC50 ([8]; 5 μM Ory c 2, read-out: EC50 fluorochrome concentration) [µM] | Increase of fluorescence intensity upon binding ([8]; 5 μM Ory c 2 with 5 μM fluorochrome, range stated for four allergens together)
1 | LCN1: recombinant human lipocalin-1 (tear lipocalin, von Ebner's gland protein), non-allergenic control, produced in E. coli | 74.8 ± 0.2 |  |  |  |  |  |  |  |  |  |  |  | 
2 | Nc1cccc2cc3ccccc3cc12 [1-AMA, 1-aminoanthracene] |  | neither reacted | 6.57 µM and 6.6 µM | 4.95 µM and 5 µM | negligible interactions | 13.9 | 9.2 | 9 | 6.9 | neither reacted | 5.7 | 4.2 | 20–60 fold
